In patent publication US7745390B2, “Antimicrobial peptides” (priority 2005, dated 2010):
Values after ≈ are worked out from the molar mass of the structure shown. Where two headings read alike, the source gives them in different places. Square brackets hold non-standard residues; d marks the D form. Peptide text beside a SMILES is read from it.

Assays:
[1] = tested on: Salmonella typhimurium; test: CFU assay in 10% FCS/DMEM; format: cell-based; settings: 3 hrs
Experimental: (§1) The CFU assay is the “gold standard” for evaluating antibiotics. Briefly, bacteria are grown overnight in rich medium, such as LB, and then diluted and grown in log phase for 2-4 hours. Cultures are set up as above, with the initial culture media being 10 mM phosphate buffer/0.03% LB; DMEM or RPMI; or DMEM or RPMI plus 10% serum (fetal calf, human, or mouse). After various periods of time, but generally 3 hours or less, aliquots are removed, diluted in LB at various dilutions, and plated on LB agar plates. Plates are incubated overnight at 37° C. and counted on an automatic colony counter.
(§2) Three preferred peptides G11.46, G12.21 and G14.15, discussed above, were further tested for antimicrobial efficacy under various conditions using the 10% FCS/DMEM assay as described under CFU assay. The incubation times with the bacteria and peptide was three hours, at which time the bacteria were diluted and plated on agar. […] The MIC for each compound is highlighted.

[2] = tested on: Staphylococcus aureus; test: CFU assay in 10% FCS/DMEM; format: cell-based; settings: 3 hrs
Experimental: as §1, §2

[3] = tested on: E. coli; test: CFU assay in 10% FCS/DMEM; format: cell-based; settings: 3 hrs
Experimental: as §1, §2

[4] = tested on: bacterial strains; test: organism not typed; format: cell-based
Experimental: as §2
Table 9 below repeats some data presented above in Tables 6, 7, and 8.

[5] = tested on: human peripheral blood mononuclear cells (PBMC); test: Propidium iodide uptake in PBMC; format: cell-based; settings: 50 μM peptide, three hours
From the text: The second assay for effects on mammalian cells involved isolating human peripheral blood mononuclear cells (PBMC) and testing peptide induced uptake of propidium iodide (PI), a measure of membrane disruption. […] Thus, the vast majority of granulysin peptide derivatives are not toxic to mammalian cells even at high concentrations.

[6] = tested on: Salmonella; format: cell-based, S. typhimurium
How it was run: (§3)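 Peptides were diluted in 10 mM phosphate buffer, pH 7.2 with 0.03% LB and incubated with bacteria (~5×10^6 CFU/ml) for 3 h at 37 °C in microtiter wells. LB was then added, growth continued overnight, and OD 600 nm was read. MIC is the lowest concentration with no growth; IC50 gives 50% growth versus medium.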

[7] = tested on: B. cereus; format: cell-based
How it was run: as §3

[8] = tested on: E. coli DH5a; format: cell-based
How it was run: as §3

[9] = tested on: bacteria; test: Activity in DMEM and RPMI media (lysis of bacteria); format: cell-based; design: key to Active in DMEM: YES: Active in DMEM; a blank means no activity; settings: Table 2; tested in DMEM and RPMI
Experimental: as §1
In the column “Active in DMEM”, a blank means no activity. MAP stands for multiple antigenic peptide, where a number of identical peptide chains are synthesized and joined to a common core (like a dendrimer).
The peptides listed in Table 2 were tested in DMEM and RPMI, media that approximate blood and tissue conditions in vivo and those that were active under these conditions are listed in the last column (active in DMEM). […] No peptides that were all L-isomer peptides lysed bacteria in DMEM supplemented with serum.
The hydrophobic moment is a measure of amphipathicity and indicates how well the hydrophobic residues fall on one side of the helix while the hydrophilic residues fall on the opposite side is shown in column 7. This was determined using the Membrane Explorer Program (http://blanco.biomol.uci.edu/mpex/). A high number indicates a high hydrophobic moment. Column 8 again (like Table 2) indicates which of these peptides is active in DMEM.

[10] = tested on: bacteria; test: Activity in serum containing media (10% FCS in DMEM or RPMI); format: cell-based; settings: 10% FCS in DMEM or RPMI
Experimental: as §1
Tests were conducted in low salt concentrations so that active peptide candidates could be identified more readily. It is important for in vivo applications that the present antimicrobial peptides be active in physiological salt concentrations (150 mM) as well as in the presence of other tissue components, such as blood plasma (serum). Serum may contain proteases that destroy peptides; the use of D-amino acids can improve protease resistance. See G12.21. […] Also active were G11.6, G11.26, G11.29, G11.30, G11.34, G11.35, G12.11, G12.19, G12.20 and G12.21. […]

[11] = 10 mM phosphate buffer, pH 7.2, 0.03% LB

gentamicin [reference compound]
% Survival (CFU Assay) ([1]; 0.04 μM): 119.73%
% Survival (CFU Assay) ([1]; 0.08 μM): 103.72%
% Survival (CFU Assay) ([1]; 0.16 μM): 105.73%
% Survival (CFU Assay) ([1]; 0.32 μM): 93.27%
% Survival (CFU Assay) ([1]; 0.63 μM): 70.15%
% Survival (CFU Assay) ([1]; >1.25 μM): 29.7%
% Survival (CFU Assay) ([2]; 0.04 μM): 90.73%
% Survival (CFU Assay) ([2]; 0.08 μM): 78.94%
% Survival (CFU Assay) ([2]; 0.16 μM): 59.49%
% Survival (CFU Assay) ([2]; 0.32 μM): 37%
% Survival (CFU Assay) ([2]; 0.63 μM): 28.51%
% Survival (CFU Assay) ([2]; >1.25 μM): 17.1%
% Survival (CFU Assay) ([3]; 0.08 μM): 117.89%
% Survival (CFU Assay) ([3]; 0.16 μM): 110.6%
% Survival (CFU Assay) ([3]; 0.32 μM): 87.76%
% Survival (CFU Assay) ([3]; 0.63 μM): 17.05%
% Survival (CFU Assay) ([3]; 1.25 μM): 0.21%
% Survival (CFU Assay) ([3]; 2.5 μM): 0.052%
MIC ([4]; E. Coli (ATCC#25922), CFU Assay in 10% FCS/DMEM (3 hrs)): 1.25 µM
MIC ([4]; Salmonella (SL1344), CFU Assay in 10% FCS/DMEM (3 hrs)): 2.5 to 5 µM
MIC ([4]; Staph A (ATCC#29213), CFU Assay in 10% FCS/DMEM (3 hrs)): >1.25 µM

CSCC[C@@H](NC(=O)[C@@H](Cc1ccccc1)NC(=O)[C@@H](CCCNC(=N)N)NC(=O)[C@@H](CCCNC(=N)N)NC(=O)[C@@H](CO)NC(=O)[C@H](NC(=O)[C@@H](CCCNC(=N)N)NC(=O)[C@@H](CCCNC(=N)N)NC(=O)[C@@H](Cc1c[nH]c2ccccc12)NC(=O)[C@@H](CCCNC(=N)N)NC(=O)[C@@H](CO)NC(=O)[C@@H](CCCNC(=N)N)NC(=O)CN)C(C)C)C(=O)N[C@H](CCCNC(=N)N)C(=O)N[C@H](CCCNC(=N)N)C(=O)O [Peptide G14.15, grsrwrrvsrrfmrr] (H-G[dR][dS][dR][dW][dR][dR][dV][dS][dR][dR][dF][dM][dR][dR]-OH)
PI uptake in normal human PBMC [5]: caused PI uptake in normal human PBMC
IC50 ([6]; pH 7.2): 150 nM
Salmonella MIC ([6]; pH 7.2): 0.35 µM
B. cereus MIC ([7]; pH 7.2): 0.2 µM
IC50 ([7]; pH 7.2): < 78 nM
MIC ([8]; DH5a): 0.3 µM (≈ 0.619 µg/mL)
E. coli DH5a MIC ([8]; DH5a, pH 7.2): 0.1 µM
IC50 ([8]; DH5a, pH 7.2): < 78 nM
MIC ([4]; ATCC#25922, 3 h): 0.63 to 1.25 µM
MIC ([4]; ATCC#29213, 3 h): 10 µM (≈ 20.6 µg/mL)
MIC ([4]; ATCC#53522, 3 h): 0.16 µM (≈ 0.33 µg/mL)
MIC ([4]; SL1344, 3 h): 2.5 to 5 µM

CSCC[C@H](NC(=O)[C@H](Cc1ccccc1)NC(=O)[C@@H](CCCNC(=N)N)NC(=O)[C@@H](CCCNC(=N)N)NC(=O)[C@H](CO)NC(=O)[C@@H](NC(=O)[C@H](CC(=O)O)NC(=O)[C@H](CCCNC(=N)N)NC(=O)[C@H](Cc1c[nH]c2ccccc12)NC(=O)[C@H](CCCNC(=N)N)NC(=O)[C@H](CO)NC(=O)[C@H](CCCNC(=N)N)NC(=O)CNC(=O)[C@@H](NC(=O)[C@H](CCCNC(=N)N)NC(=O)[C@H](CO)NC(=O)[C@@H](NC(=O)[C@H](CCCNC(=N)N)NC(=O)[C@@H](NC(=O)[C@@H]1CCCN1C(=O)[C@@H]1CCCN1C(=O)[C@H](CCCNC(=N)N)NC(=O)[C@H](CO)NC(=O)[C@@H](NC(=O)[C@H](CO)NC(=O)[C@H](CCCNC(=N)N)NC(=O)[C@@H](N)CCC(N)=O)C(C)C)[C@@H](C)O)C(C)C)[C@@H](C)O)C(C)C)C(=O)N[C@@H](CCCNC(=N)N)C(=O)N[C@@H](CCCNC(=N)N)C(=O)O [Peptide G8.11] (H-QRSVSRPPTRVSRTGRSRWRDVS[dR][dR]FMRR-OH; N-terminus and C-terminus assumed)
IC50 ([6]; pH 7.2): 220 nM
Salmonella MIC ([6]; pH 7.2): 0.35 µM
B. cereus MIC ([7]; pH 7.2): 0.75 µM
IC50 ([7]; pH 7.2): 450 nM
E. coli DH5a MIC ([8]; DH5a, pH 7.2): 0.35 µM
IC50 ([8]; DH5a, pH 7.2): 210 nM
Active in DMEM [9]: YES
active in serum containing media [10]: active

CRRVSRRFMRRC [G11.29 CYC]
Salmonella MIC [6, 11]: 2.8 µM
IC50 ([6]; 10 mM phosphate buffer, pH 7.2, 0.03% LB, read-out: Salmonella IC50): 1750 nM
B. cereus MIC [7, 11]: 1.39 µM
IC50 ([7]; 10 mM phosphate buffer, pH 7.2, 0.03% LB, read-out: B. cereus IC50): 890 nM
E. coli DH5a MIC [8, 11]: 1.4 µM
IC50 ([8]; 10 mM phosphate buffer, pH 7.2, 0.03% LB, read-out: E. coli DH5a IC50): 750 nM
Active in DMEM [9]: YES
active in serum containing media [10]: active
